Experimental data from patent US7285687B2 (priority 2002, dated 2007).

Tests used:
CB2 receptor = molecular target: T1, CB2 receptor (Homo sapiens, UniProt P34972); test: CB2 binding procedure, displacement of [3H]CP-55,940 from membranes of transfected CHO cells; settings: for CB1/CB2: ratio of CB1 Ki to CB2 Ki; for Ki: Table 6, read-out: CB2 KI
T1 construct: expressed in transfected cells
Procedure: Membranes for CB2 binding were obtained from CHO cells. The transfected cell line was maintained in Dublecco's Modified Eagle Medium (Gibco BRL, Grand Island, N.Y.) with 10% fetal clone II (HyClone Laboratories, Inc., Logan, Utah) plus 0.3 to 0.5 mg/ml G418 (to maintain selective pressure) under 5% CO2 at 37% C. Cells were harvested with 1 mM EDTA in phosphate-buffered saline and were centrifuged at 1000×g for 5 min at 4% C. The supernatant was saved and the P1 pellet was resuspended in centrifugation buffer. Homogenization and centrifugation were repeated twice and the combined supernatant fractions were centrifuged at 40,000×g for 30 min at 4% C. The P2 pellet was resuspended in centrifugation buffer 2 (Tris HCl, 50 mM; EDTA, 1 mM; and MgCl2, 3 mM, pH 7.4) to a protein concentration of approximately 2 mg/ml. Protein concentrations were determined by the method of Bradford (1976) using Bio-Rad Protein Assay (Bio-Rad, Richmond, Calif.) and BSA standards (fatty acid free, Sigma Chemical Co., St. Louis, Mo.). The membrane preparation was divided into amounts convenient for binding assays and frozen rapidly in dry ice and stored at −80% C.
Binding was initiated by the addition of 50•g of quickly thawed P2 membranes to test tubes containing [^3H]CP-55,940 (final reaction concentration 0.5 nM), an appropriate concentration of unlabeled CP-55,940 or test drug, and sufficient quantity of assay buffer (50 mM Tris-HCl, 1 mM EDTA, 3 mM MgCl2, 5 mg/ml bovine serum albumin, pH 7.4) to bring the total incubation volume to 0.5 ml. Concentration of [^3H]CP-55,940 in saturation studies ranged from 50 to 10,000 pM. […] CP-55,940 and all cannabinoid analogs were-prepared by suspension in assay buffer from a 1 mg/ml ethanolic stock without evaporation of the ethanol (final concentration of no more than 0.4%). In competition studies, analog concentrations ranged from 0.1 nM to 10•M. After incubation at […] for 1 hr, binding was terminated by the addition of 2 ml of ice-cold wash buffer (50 mM Tris-HCl and 1 mg/ml BSA) and vacuum filtration through pre-treated filters in a 12-well sampling manifold (Millipore, Bedford, Mass.). Reaction vessels were washed once with 2 ml of ice-cold wash buffer. Filters were placed into 7-ml plastic scintillation vials (RPI Corp., Mount Prospect, Ill.) with 4 ml of Budget-Solve (RPI Corp.). After shaking for 30 min, the radioactivity present was determined by liquid scintillation spectrometry. Three reaction vessels were used for each drug concentration in each assay. The results represent the combined data of three independent experiments. All assays were performed in siliconized test tubes, which were prepared by air drying (12 hr) inverted borosilicate tubes after two rinses with a 0.1% solution of AquaSil (Pierce, Rockford, Ill.). The GF/C glass-fiber filters (2.4 cm, Baxter, McGaw Park, Ill.) were pre-treated in a 0.1% solution of pH 7.4 polyethylenimine (Sigma Chemical Co.) for at least 6 hr.
(§1) In addition, multiple linear regression was used to calculate the overall degree of relationship between CB1 binding affinity and potency in the mouse measures for all active cannabinoids. […] Ki values for CB1 and CB2 binding were obtained from Scatchard displacement analysis as determined via EBDA program of the KELL software package (Biosoft, Milltown, N.J.).

CB1 receptor = molecular target: T2, CB1 receptor (Rattus norvegicus, UniProt P20272); test: CB1 binding procedure, displacement of [3H]CP 55,940 from rat whole-brain P2 membranes; settings: for Ki: Table 6, read-out: CB1 KI
T2 construct: whole brain was homogenized and centrifuged; from tissue; host or cells: whole brain of male Sprague-Dawley rats, P2 membrane fraction
T2 sequence (P20272 whole entry): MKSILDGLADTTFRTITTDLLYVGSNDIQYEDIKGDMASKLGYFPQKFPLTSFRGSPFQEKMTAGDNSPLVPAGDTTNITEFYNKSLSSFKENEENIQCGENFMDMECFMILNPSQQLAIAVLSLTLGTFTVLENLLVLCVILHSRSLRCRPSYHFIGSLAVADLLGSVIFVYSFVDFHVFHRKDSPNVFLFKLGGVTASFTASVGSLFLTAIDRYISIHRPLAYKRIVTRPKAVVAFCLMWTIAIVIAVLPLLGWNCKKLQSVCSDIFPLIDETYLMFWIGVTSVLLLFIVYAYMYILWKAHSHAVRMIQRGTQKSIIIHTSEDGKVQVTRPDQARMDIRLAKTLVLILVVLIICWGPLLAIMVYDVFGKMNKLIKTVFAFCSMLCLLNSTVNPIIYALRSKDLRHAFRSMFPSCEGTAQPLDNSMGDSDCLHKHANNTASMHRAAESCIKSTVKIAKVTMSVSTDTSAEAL
Procedure: Male ICR mice (25-32 g), obtained from Harlan (Dublin, Va.), were housed in groups of five. All animals were kept in a temperature-controlled (20-22° C.) environment with a 12-hour light-dark cycle (lights on at 7 a.m.). Separate mice were used for testing each drug dose in the in vivo behavioral procedures. Brain tissue for binding studies was obtained from male Sprague-Dawley rats (150-200 g) purchased from Harlan Laboratories (Dublin, Va.).
The methods used for tissue preparation and binding have been described previously (Compton et al., 1993) and are similar to those described by Devane et al. (1988). All assays, as described briefly below, were performed in triplicate, and the results represent the combined data from three to six individual experiments.
Following decapitation and rapid removal of the brain, whole brain was homogenized and centrifuged. The resulting pellet was termed P1. The supernatant was saved and combined with the two subsequent supernatants obtained from washing of the P1 pellet. The combined supernatant fractions were centrifuged, resulting in the P2 pellet. After further incubation and centrifuging, this pellet was resuspended in assay buffer to a protein concentration of approximately 2 mg/ml. The membrane preparation was quickly frozen in a bath solution of dry ice and 2-methylbutane (Sigma Chemical Co., St. Louis, Mo.), then stored at −80° C. for no more than 2 weeks. Prior to performing a binding assay an aliquot of frozen membrane was rapidly thawed and protein values determined by the method of Bradford (1976).
Binding was initiated by the addition of 150•g of P2 membrane to test tubes containing 1 nM of [^3H] CP 55,940 (79 Ci/mmol) and a sufficient quantity of buffer to bring the total incubation volume to 1 ml. […] Following incubation at 30° C. for 1 hr, binding was terminated by addition of ice cold buffer and vacuum filtration through pretreated filters in a 12-well sampling manifold (Millipore, Bedford, Mass.). After washing, filters were placed into plastic scintillation vials (Packard, Downer Grove, Ill.) and shaken. The quantity of radioactivity present was determined by liquid scintillation spectrometry.
as §1

T1 sequence (P34972 whole entry): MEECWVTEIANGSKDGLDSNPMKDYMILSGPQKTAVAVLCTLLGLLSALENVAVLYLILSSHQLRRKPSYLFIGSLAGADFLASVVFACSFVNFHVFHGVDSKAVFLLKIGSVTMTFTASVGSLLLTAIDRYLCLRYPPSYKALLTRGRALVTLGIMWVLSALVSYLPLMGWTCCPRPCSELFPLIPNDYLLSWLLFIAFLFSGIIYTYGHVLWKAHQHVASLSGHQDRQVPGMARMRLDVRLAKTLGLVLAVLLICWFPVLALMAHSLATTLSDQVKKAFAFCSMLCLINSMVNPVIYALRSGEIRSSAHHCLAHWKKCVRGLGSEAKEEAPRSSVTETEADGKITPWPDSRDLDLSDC

Compound	CB1/CB2 (CB2 receptor)	also measured
CCCCCCC(C)(C)c1cc(O)c(C2CCCC(C)C2)c(O)c1 (mixture of isomers) [O-1657, 2-(3-Methylcyclohexyl)-5-(1′,1′-dimethylheptyl)-resorcinol]	17	
CCCCCCC(C)(C)c1cc(O)c(C2CCCC(C)C2)c(O)c1 (single isomer, unassigned) [O-1798B, 2-(3-Methylcyclohexyl)-5-(1′,1′-dimethylheptyl)-resorcinolisomer B]	8	Ki (CB1 receptor): 4.33 ± 0.58 nM
CCCCCCC(C)(C)c1cc(OC)c(C2(O)CCC(O)CC2)c(OC)c1 (single isomer, unassigned) [O-2116A, 1-[4-(1,1-Dimethyl-heptyl)-2,6-dimethoxy-phenyl]-cyclohexane-1,4-olol (A)]	21	
C=C(C)[C@@H]1CCC(C)=CC1c1c(O)cccc1O (single isomer, unassigned; (-)) [O-1847, (-)-2-(3-3,4-trans-p-menthadien-(1,8)-yl)-resorcinol]		Ki (CB1 receptor): > 10000 nM
C=C(C)[C@@H]1CCC(C)=CC1c1ccc(O)cc1O (single isomer, unassigned; (-)) [O-1848, (-)-4-(3-3,4-trans-p-menthadien-(1,8)-yl)-resorcinol]		Ki (CB1 receptor): > 10000 nM
C=C(C)[C@@H]1CCC(C)=CC1c1c(O)c(I)c(C)c(I)c1O (single isomer, unassigned; (-)) [O-1868, (-)-2-(3-3,4-trans-p-menthadien-(1,8)-yl)-1,6-dipdoorcinol]		Ki (CB1 receptor): > 10000 nM
CCCCCCC(C)(C)c1cc(O)c(C2CCCC(C)C2)c(O)c1 (single isomer, unassigned; isomer a) [O-1797A, 2-(3-Methylcyclohexyl)-5-(1′,1′-dimethylheptyl-resorcinol isomer A]	12	Ki (CB2 receptor): 0.44 ± 0.03 nM
CCCCCCC(C)(C)c1cc(O)c([C@H]2CCCC(C)C2)c(O)c1 (stereo in doubt) [O-1826, 2-(3R-Methylcyclohexyl)-5-(1′,1′-dimethylheptyl)-resorcinol]	50	
CCCCCCC(C)(C)c1cc(OC)c(C2(O)CCC[C@@H](C)C2)c(OC)c1 (stereo in doubt) [compound 2137, 1-[4-(1,1-Dimethyl-heptyl)-2,6-dimethoxy-phenyl]-3-methyl-cyclohexanol]		Ki (CB2 receptor): 11 ± 2.18 nM; Ki (CB1 receptor): 2670 ± 145 nM
CCCCCCC(C)(C)c1cc(O)c(C2CCCCC2)c(O)c1 [O-1422, Cyclohexyl-5-(1′,1′-dimethylheptyl)-resorcinol]	7	
CCCCCCC(C)(C)c1cc(O)c(C2=CCCCC2)c(O)c1 [O-1423]	3	
CCCCCCC(C)(C)c1cc(O)c(C2CCSCC2)c(O)c1 [O-1425]	13	fold decrease in CB2 affinity (CB2 receptor; compared to O-1422): 8 fold; fold decrease in CB1 affinity (CB1 receptor; compared to O-1422): 14 fold
CCCC(C)(C)c1ccc(-c2cc(C)ccc2C(C)C)c(O)c1 [O-1532, 3-1′,1′-Dimethylbutyl-6-(2-isopropyl-5-methyl-phenyl)-phenol]	8	
CCCCCCC(C)(C)c1ccc(-c2cc(CO)ccc2C(C)C)c(O)c1 [O-1601, 3-1′,1′-Dimethylhepyl-6-(2-isopropyl-5-hydroxy-methylphenyl)-phenol]	2	
CCCCCCC(C)(C)c1cc(O)c(C2CCCCC2C)c(O)c1 (stereo not drawn) [O-1658, 2-(2-Methylcyclohexyl)-5-(1′,1′-dimethylheptyl)-resorcinol]	16	
CCCCCCC(C)(C)c1cc(O)c(C2CCC(C)CC2)c(O)c1 (stereo not drawn) [O-1659, 2-(4-Methylcyclohexyl)-5-(1′,1′-dimethylheptyl)-resorcinol]	9	
CCCCCCC(C)(C)c1cc(O)c(C2C3CC4CC(C3)CC2C4)c(O)c1 (stereo not drawn) [O-1660, 2-(2-Adamantanyl)-5-(1′,1′-di-methylheptyl)-resorcinol]	2	Ki (CB2 receptor): 3.16 ± 0.81 nM; Ki (CB1 receptor): 7.5 ± 1.2 nM
CCCCCCC(C)(C)c1cc(O)c(C2CCC(c3ccccc3)CC2)c(O)c1 (stereo not drawn) [O-1663, 2-(4-Phenylcyclohexyl)-5-(1′,1′-dimethylheptyl)-resorcinol]	16	
CCCC(C)(C)c1cc(O)c(C2CCCC(C)C2)c(O)c1 (stereo not drawn) [O-1890, 2-(3-Methylcyclohexyl)-5-(1′,1′-dimethylbutyl)-resorcinol]	7	
CCCCCCC(C)(C)c1cc(OC)c(C2CCCC(C)C2)c(OC)c1 (stereo not drawn) [O-1999, 5-(1,1-Dimethyl-heptyl)-1,3-dimethoxy-2-(3-methyl-cyclohexyl)-benzeno]		fold reduction in affinity for CB2 receptors (CB2 receptor; compared to O-1657): ~600 fold
CCCCCCC(C)(C)c1cc(OC)c(C2(O)CCCC(C)(C)C2)c(OC)c1 (stereo not drawn) [O-2068, 1-[4-(1,1-Dimethylheptyl)-2,6-dimethoxyphenyl]3,3-dimethyl-cyclohexanol]	47	
CCCCCCC(C)(C)c1cc(OC)c(C2(O)CCCCC2)c(OC)c1 [O-2072, 1-[4-(1,1-Dimethylheptyl)-2,6-dimethoxyphenyl]-cyclohexanol]	55	
CCCCCCC(C)(C)c1cc(OCC)c(C2(O)CCCC(C)C2)c(OCC)c1 (stereo not drawn) [O-2090, 1-[4-(1,1-Dimethylheptyl)-2,6-dietlphenyl]-3-methyl cyclohexane-1-ol]	10	
CCCCCCC(C)(C)c1cc(OC)c(C2(O)CCCCCC2)c(OC)c1 [O-2091, 1-[4-(1,1-Dimethylheptyl)-2,6-dimephenyl]-cycloheptan-1-ol]	50	
CCCCCCC(C)(C)c1cc(OC)c(C2(O)CCC3(CC2)OCCO3)c(OC)c1 [O-2092, 8-[4-(1,1-Dimethylheptyl)-2,6-dimephenyl]-1,4-dioxaspiro[4,5]decan-]	36	
CCCCCCC(C)(C)c1cc(OC)c(C2=CCC(=O)CC2)c(OC)c1 [O-2114, 4-[4-(1,1-Dimethyl-heptyl)-2,6-dimethoxy-phenyl]-cyclohex-3-enone]	5	
CCCCCCC(C)(C)c1cc(OC)c(C2(O)CC(C)CC(O)C2)c(OC)c1 (stereo not drawn) [O-2121]	20	
CCCCCCC(C)(C)c1cc(OC)c(C23CCC(O)CC2O3)c(OC)c1 (stereo not drawn) [O-2122, 6-[4-(1,1-Dimethyl-heptyl)-2,6-dimethoxy-phenyl]-7-oxa-bicyclo[4 1 0]heptan-3-ol]	4	
CCCCCCC(C)(C)c1cc(OC)c(C2(O)CC(=O)CC(C)C2)c(OC)c1 (stereo not drawn) [O-2123, 3-[4-(1,1-Dimethyl-heptyl)-2,6-dimethoxy-phenyl]-3-hydroxy-5-methyl-cyclohexanone]	14	Ki (CB1 receptor): 7330 ± 117 nM
COc1cc(C)cc(OC)c1C1(O)CCCCC1 [O-2298, 1-(2,6-Dimethoxy-4-methyl-phenyl)-cyclohexanol]		Ki (CB2 receptor): > 10000 nM; Ki (CB1 receptor): > 10000 nM
